Patent publication US4758558A, “N-(substituted)-[7-(2-cyanoacetamido)cephalosporanic]amide derivatives having antibiotic utility” (priority 1982, dated 1988)

Key:
Escherichia coli = assay: Effect on intestinal bacteria: number of Escherichia coli in feces; assay type: in vivo, ICR mice; settings: after oral administration for 2 days, 500 mg/kg/day, female ICR mice; before: 6.4
Procedure: (b) Effect on the intestinal bacterial colonies:
[…] Each portion of the two kinds of the feces was cultured at 25° C. or 37° C. in a variety of culture medium for one to five days to see the state of Escherichia coli, Pseudomonas aeruginosa, a Streptococcus species, a Lactobacillus species, Lactobacillus bifidus and a Bacteroides species in the culture medium.
(§1) Effects of the present compound on intestinal bacteria
Each of the two fecal […] by weight of an anaerobic diluent (a phosphoric acid buffer solution) and was ground in a mortar, and 0.1 ml of the thus ground material was smeared on each of the following culture media for the following bacteria, and the thus inoculated culture media were incubated under the following conditions. Thereafter, the number of the following bacteria in each of the thus cultured media was determined.

Pseudomonas aeruginosa = assay: Effect on intestinal bacteria: number of Pseudomonas aeruginosa in feces; assay type: in vivo, ICR mice; settings: mouse, in vivo, po, 500 mg/kg/day
Procedure: as §1
(§2) Each of the present compounds respectively produced in Examples 1 to 18 was orally administered continuously for 2 days at a daily dose rate of 500 mg/kg body weight to each of five female ICR mice of each group after 6 weeks of their birth.
(§3) Each of the two fecal specimens respectively collected from each mouse before and after one day of the administration was diluted with 100 times by weight of an anaerobic diluent (a phosphoric acid buffer solution) and was ground in a mortar, and 0.1 ml of the thus ground material was smeared on each of the following culture media for the following bacteria, and the thus inoculated culture media were incubated under the following conditions. Thereafter, the number of the following bacteria in each of the thus cultured media was determined.
NAC agar 37° C., one day, […]

[1] = tested on: a species of Streptococcus; assay: Effect on intestinal bacteria: number of a sp. of Streptococcus in feces; assay type: in vivo, ICR mice; settings: mouse, in vivo, po, 500 mg/kg/day
Procedure: (§4) (b) Effect on the intestinal bacterial colonies: […]
as §1, §2, §3
a species of Streptococcus
TATAC agar 37° C., one day, […]

[2] = tested on: a species of Lactobacillus; assay: Effect on intestinal bacteria: number of a sp. of Lactobacillus in feces; assay type: in vivo, ICR mice; settings: mouse, in vivo, po, 500 mg/kg/day
Procedure: as §4, §1, §2, §3
a species of Lactobacillus
LBS agar 37° C., 5 days, […]

Lactobacillus bifidus = assay: Effect on intestinal bacteria: number of Lactobacillus bifidus in feces; assay type: in vivo, ICR mice; settings: mouse, in vivo, po, 500 mg/kg/day
Procedure: as §4, §1, §2, §3
BS agar 37° C., 5 days, […]

a species of Bacteroides = assay: Effect on intestinal bacteria: number of a sp. of Bacteroides in feces; assay type: in vivo, ICR mice; settings: mouse, in vivo, po, 500 mg/kg/day
Procedure: as §4, §1, §2, §3
a species of Bacteroides
NBGT agar 37° C., 5 days, […]

[3] = tested on: Escherichia coli IFO 12734; assay: Antibacterial activity in vitro (MIC) against Escherichia coli; assay type: cell-based; settings: IFO12734, Mueller-Hinton agar, 18 to 24 hours, 37° C., read-out: MIC (minimum growth inhibiting concentration) against Escherichia coli
Procedure: (§5) (c) Anti-bacterial activity (in vitro):
(§6) Minimum concentration of the present compound inhibiting the growth of the following bacteria was determined according to the standard procedures of Japan Society of Chemotherapy:
Escherichia coli IFO 12734 and
(§7) Determination of the antibacterial activity of the present compound produced in Examples 1 to 18, respectively was carried out according to the standard procedures of Japan Society of Chemotherapy for finding MIC (the minimum concentration of a specimen to inhibit the growth of a species of bacteria).
(§8) A series of diluted solutions of each of the present compound were mixed with 9 times by weight of Mueller-Hinton's culture medium as the culture medium for determining the sensitivity of a bacterial species, and flat agar culture plates were prepared by using the thus obtained mixture.
(§9) Each of the liquids respectively containing one of the bacterial species shown in Table 2 was smeared onto each of the thus prepared flat agar culture plates with a platinum loop, in length of about 2 cm, and the thus treated plates were incubated for 18 to 24 hours at 37° C. Thereafter, by observing the growth state of each bacterial species on the cultured plates, the minimum concentration of each compound completely inhibiting the growth of each bacterial species was found.

[4] = tested on: Staphylococcus aureus IAM 1011; assay: Antibacterial activity in vitro (MIC) against Staphylococcus aureus; assay type: cell-based; settings: IAM1011, Mueller-Hinton agar, 18 to 24 hours, 37° C., read-out: MIC (minimum growth inhibiting concentration) against Staphylococcus aureus
Procedure: as §5, §6
Staphylococcus aureus IAM 1011
as §7, §8, §9

[5] = tested on: Escherichia coli IFO 12734; assay: Treatment of experimental infectious disease in mouse due to Escherichia coli; assay type: in vivo, ddY SPE mice; settings: oral, two times just after and 4 hours after inoculation; 1.4×10^8 cells i.p.
Description: (§10) (e) Effectiveness in treating experimental infectious disease due to bacteria:
(§11) (Refer to Example 22 for the details of the test.) As the result, while all the twenty mice artificially infected with each of the two bacterial species and not-treated with any of the present compound died on the second day of inoculation, more than 40% of the twenty mice artificially infected with each of the two bacterial species and administered with each of the three present compounds were alive even after 7 days of inoculation.
(§12) Effectiveness of the present compound in treatment of an experimental infectious disease in mouse
(1) Disease due to infection of Escherichia coli
(§13) Each mouse of the two groups (20 animals/group) of ddY SPE mice was inoculated with 1.4×10^8 cells of Escherichia coli IFO 12734 intraperitoneally, and then, each mouse of the one of the two groups was administered orally with one of the present compounds, namely the compound produced in Example 5, 10 or 13, two times just after and 4 hours after the inoculation, while the 20 mice of the other group were not administered.

[6] = tested on: Staphylococcus aureus IAM 1011; assay: Treatment of experimental infectious disease in mouse due to Staphylococcus aureus; assay type: in vivo, ddY SPE mice; settings: oral, two times just after and 4 hours after inoculation; 2.3×10^8 cells i.p.
Description: as §10, §11, §12
(2) Disease due to infection of Staphylococcus aureus
as §13, with “2.3×10^8” for “1.4×10^8”, “Staphylococcus aureus IAM 1011” for “Escherichia coli IFO 12734”

SMILES | Number of Escherichia coli after the administration (Escherichia coli) | Number of Pseudomonas aeruginosa after the administration (Pseudomonas aeruginosa) | Number of a sp. of Streptococcus after the administration [1] | Number of a sp. of Lactobacillus after the administration [2] | Number of Lactobacillus bifidus after the administration (Lactobacillus bifidus) | Number of a sp. of Bacterioides after the administration (a species of Bacteroides) | MIC [3] [µg/mL] | MIC [4] [µg/mL] | mice alive on the 7th day of inoculation (Escherichia coli infection) [5] | mice alive on the 7th day of inoculation (Staphylococcus aureus infection) [6]
COC(=O)CNC(=O)c1ccc(NC(=O)C2=C(C)CSC3C(NC(=O)[C@H](N)c4ccccc4)C(=O)N23)cc1 (stereo partly drawn) [Example 5, N-(4-carbomethoxymethylcarbamoylphenyl)-[7-(D-alpha-aminophenylacetamido)desacetoxycephalosporanic]amide] | 6.5 Log10 (number of bacteria/g feces) | < 3.0 Log10 (number of bacteria/g feces) | 6.7 Log10 (number of bacteria/g feces) | 8.9 Log10 (number of bacteria/g feces) | 8.4 Log10 (number of bacteria/g feces) | 8.4 Log10 (number of bacteria/g feces) | ≥ 100 | ≥ 100 | more than 60% | more than 65%
CC(=O)OCC1=C(C(=O)Nc2ccc(C)cc2)N2C(=O)C(NC(=O)CC#N)C2SC1 (centres unmarked) [Example 10, N-(4-methylphenyl)-[7-(2-cyanoacetamido)caphalosporanic]amide] | 6.8 Log10 (number of bacteria/g feces) | < 3.0 Log10 (number of bacteria/g feces) | 6.8 Log10 (number of bacteria/g feces) | 9.0 Log10 (number of bacteria/g feces) | 8.2 Log10 (number of bacteria/g feces) | 8.9 Log10 (number of bacteria/g feces) | ≥ 100 | ≥ 100 | more than 80% | more than 85%
COC(=O)c1ccc(NC(=O)C2=C(CSc3nnc(C)s3)CSC3C(NC(=O)Cn4cnnn4)C(=O)N23)cc1 (centres unmarked) [Example 13, N-(4-carbomethoxyphenyl)-{7-(1-1H-tetrazolylacetamido)-3-[2-(5-methyl-1,3,4-thiadiazolyl)thiomethyl]-3-cephem-4-carboxylic}amide] | 6.4 Log10 (number of bacteria/g feces) | < 3.0 Log10 (number of bacteria/g feces) | 6.6 Log10 (number of bacteria/g feces) | 9.0 Log10 (number of bacteria/g feces) | 8.4 Log10 (number of bacteria/g feces) | 8.7 Log10 (number of bacteria/g feces) | ≥ 100 | ≥ 12.5 | more than 80% | more than 60%

Continued, in another order:

Number of Escherichia coli after the administration (Escherichia coli) | Number of Pseudomonas aeruginosa after the administration (Pseudomonas aeruginosa) | Number of a sp. of Streptococcus after the administration [1] | Number of a sp. of Lactobacillus after the administration [2] | Number of Lactobacillus bifidus after the administration (Lactobacillus bifidus) | Number of a sp. of Bacterioides after the administration (a species of Bacteroides) | MIC [3] [µg/mL] | MIC [4] [µg/mL] | SMILES | mice alive on the 7th day of inoculation (Escherichia coli infection) [5] | mice alive on the 7th day of inoculation (Staphylococcus aureus infection) [6]
6.5 Log10 (number of bacteria/g feces) | < 3.0 Log10 (number of bacteria/g feces) | 6.8 Log10 (number of bacteria/g feces) | 9.1 Log10 (number of bacteria/g feces) | 8.2 Log10 (number of bacteria/g feces) | 8.2 Log10 (number of bacteria/g feces) | ≥ 100 | ≥ 12.5 | COC(=O)CNC(=O)c1ccc(NC(=O)C2=C(CSc3nnc(C)s3)CSC3C(NC(=O)Cn4cnnn4)C(=O)N23)cc1 (centres unmarked) [Example 15, N-(4-carbomethoxymethylcarbamoylphenyl)-{7-(1-1H-tetrazolylacetamido)-3-[2-(5-methyl-1,3,4-thiadiazolyl)thiomethyl]-3-cephem-4-carboxylic}amide] |  | 
6.5 Log10 (number of bacteria/g feces) | < 3.0 Log10 (number of bacteria/g feces) | 6.5 Log10 (number of bacteria/g feces) | 9.2 Log10 (number of bacteria/g feces) | 8.3 Log10 (number of bacteria/g feces) | 8.1 Log10 (number of bacteria/g feces) | ≥ 100 | ≥ 12.5 | Cc1ccc(NC(=O)C2=C(CSc3nnc(C)s3)CSC3C(NC(=O)Cn4cnnn4)C(=O)N23)cc1 (centres unmarked) [Example 16, N-(4-methylphenyl)-{7-(1-1H-tetrazolylacetamido)-3-[2-(5-methyl-1,3,4-thiadiazolyl)thiomethyl]-3-cephem-4-carboxylic}amide] |  | 
6.4 Log10 (number of bacteria/g feces) | < 3.0 Log10 (number of bacteria/g feces) | 6.9 Log10 (number of bacteria/g feces) | 9.0 Log10 (number of bacteria/g feces) | 8.4 Log10 (number of bacteria/g feces) | 8.1 Log10 (number of bacteria/g feces) | ≥ 3.12 | ≥ 0.78 | Cc1nnc(SCC2=C(C(=O)NCCc3ccc(O)cc3)N3C(=O)C(NC(=O)Cn4cnnn4)C3SC2)s1 (stereo not drawn) [Example 17, N-[beta-(4-hydroxyphenyl)ethyl]-{7-(1-1H-tetrazolylacetamido)-3-[2-(5-methyl-1,3,4-thiadiazolyl)thiomethyl]-3-cephem-4-carboxylic}amide] |  | 
6.4 Log10 (number of bacteria/g feces) | < 3.0 Log10 (number of bacteria/g feces) | 6.9 Log10 (number of bacteria/g feces) | 9.0 Log10 (number of bacteria/g feces) | 8.4 Log10 (number of bacteria/g feces) | 8.1 Log10 (number of bacteria/g feces) | ≥ 100 | ≥ 12.5 | Cc1nnc(SCC2=C(C(=O)Nc3ccc(C(N)=O)cn3)N3C(=O)C(NC(=O)Cn4cnnn4)C3SC2)s1 (centres unmarked) [Example 18, N-(6-nicotinic amide)-{7-(1-1h-tetrazolylacetamido)-3-[2-(5-methyl-1,3,4-thiadiazolyl)thiomethyl]-3-cepehem-4-carboxylic}amide] |  | 
